Our source for the Activity values is ChEMBL document CHEMBL3046799, “Synthesis and in vivo anticancer and antiangiogenic effects of novel thioxothiazolidin-4-one derivatives against transplantable mouse tumor” (2010).

Test [1] deals with EAT. Description: Antitumor activity against Mus musculus (mouse) EAT xenografted in Mus musculus (mouse) assessed as decrease in body weight at 100 mg/kg, ip administered day 7 to 11 post tumor implantation measured on day 12 relative to control.
Test [2] concerns EAT. Description: Antiangiogenic activity in Mus musculus (mouse) EAT xenografted in Mus musculus (mouse) assessed as reduction of vascularization at 100 mg/kg, ip administered day 7 to 11 post tumor implantation measured on day 12 relative to control. The format is functional, organism-based. Details: dose 100 mg/kg.
In test [3] the test system is EAT. Description: (§1) Antitumor activity against Mus musculus (mouse) EAT xenografted in Mus musculus (mouse) assessed as decrease in tumor volume at 100 mg/kg, ip administered day 7 to 11 post tumor implantation measured on day 12 (reference value: 7.6 +/- 0.9 ml). Type of test: functional.
The nature of test [4]: Antitumor activity against Mus musculus (mouse) EAT xenografted in Mus musculus (mouse) assessed as increase in life span at 100 mg/kg, ip administered day 7 to 11 post tumor implantation measured up to 28 days relative to control. The format is functional. The settings on record: route intraperitoneal.
A short description of test [5]: as §1. Type of test: functional. The settings on record: route intraperitoneal.

SMILES strings stand for the structures. Activity calls are given as the source filed them. The rule behind the calls is not given here.

Regarding `O=C(CN1C(=O)/C(=C/c2ccc(-c3ccc(Cl)cc3)o2)SC1=S)Nc1ccon1`, the outcome with EAT [1], with EAT [2] and in the test with EAT [3] was Active. Moreover, the Activity in test [4] was 18.25%.

`CCCCNC(=O)CN1C(=O)/C(=C/c2ccc(-c3ccc(Cl)cc3)o2)SC1=S`: the result with EAT [1] and in the test on EAT [2] was Active. Also, the Activity in test [4] worked out at 12.5%.

Turning to `O=C(CN1C(=O)/C(=C/c2ccc(-c3ccc(Cl)cc3)o2)SC1=S)N1CCN(c2ccccc2F)CC1`, the result with EAT [1], with EAT [2] and with EAT [3] was Active. Also, the Activity in test [4] was 31.25%.

On to `COc1ccc(CCNC(=O)CN2C(=O)/C(=C/c3ccc(-c4ccc(Cl)cc4)o3)SC2=S)cc1`, for which the outcome with EAT [1] and in the test with EAT [2] was Active. The Activity in test [5] was found to be 5.7 mL; in test [4], 37.5%.

For the molecule `COC(=O)C(Cc1ccc(O)cc1)NC(=O)CN1C(=O)/C(=C/c2ccc(-c3ccc(Cl)cc3)o2)SC1=S` (configuration not stated), the result with EAT [1], in the test with EAT [2] and in the test with EAT [3] was Active. The Activity in test [4] turned out to be 25%.

Consider `COc1ccc(Cn2nc(C3CC3)cc2NC(=O)CN2C(=O)/C(=C/c3ccc(-c4ccc(Cl)cc4)o3)SC2=S)cc1`, for which the result in the test with EAT [1] and with EAT [2] was Active. Further, the figures for the Activity in test [5] and in test [4] were 4.8 mL and 56.25%, respectively.

In the case of `Cc1nc(-c2ccc(NC(=O)CN3C(=O)/C(=C/c4ccc(-c5ccc(Cl)cc5)o4)SC3=S)cc2)no1`, the outcome in the test on EAT [1] and with EAT [2] was Active. The Activity was 5.2 mL in test [5] and 43.75% in test [4].
